Tests used:
[1] = Etoricoxib solubility in the release media; type: physicochemical; conditions: used in Higuchi equation
Procedure: D=(slope/A)^2/2CCs • Where the slope is the amount of drug released at time t divided by the square root of time, A is the area of the film, C is the initial drug concentration (or the drug-load in the polymer), CS is the drug solubility in the media (0.5 mg/mL) and D is the diffusivity constant. This constant not only indicates the mobility of the drug from the film into the media, but also can be used to calculate for the time of total release using the maximum amount of drug within the film (Table 11).

[2] = In vitro etoricoxib release from PEU films, USP Apparatus 7, PBS; type: physicochemical; conditions: about 6 mg in USP 7, PBS, n=3
[3] = 90 mg etoricoxib dosed patients in comparison to diclofenac at 150 mg; oral; cited from earlier work

drug solubility in the media (CS) [1]: 500 µg/mL | time at which free drug release reached a plateau [2]: ~1 days
SMILES: Cc1ccc(-c2ncc(Cl)cc2-c2ccc(S(C)(=O)=O)cc2)cn1 [etoricoxib]
gastrointestinal events [3]: decrease in gastrointestinal events | risk of edema and hypertension [3]: dose-dependent increased risk
